Measurements: paper doi:10.1101/2023.11.21.567704v1 (biorxiv, 2023)

Columns and labels:
MtbFolB [1] = target: T1, MtbFolB (Mycobacterium tuberculosis, UniProt P9WNC5); assay: end-point fluorescence assay; type: biochemical
T1 sequence (P9WNC5 1-133): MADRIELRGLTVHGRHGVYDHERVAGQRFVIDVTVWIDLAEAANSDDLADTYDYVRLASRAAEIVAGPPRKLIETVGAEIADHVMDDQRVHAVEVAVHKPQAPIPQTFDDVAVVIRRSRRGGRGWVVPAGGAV

MtbFolB [2] = target: T1, MtbFolB; assay: biochemical; conditions: read-out: % inhibition
MtbFolB [3] = target: T1, MtbFolB; assay: biochemical
MtbFolB [4] = target: T1, MtbFolB; assay: primary screen, end-point fluorescence assay, 384-well, […] h; type: biochemical; conditions: 5 µM DHNP, 14 nM enzyme, pH 8.0, 24 °C, 1% DMSO

Row | SMILES | IC50 (MtbFolB [1]) [µM] | inhibition at 20 µM (MtbFolB [2]) [%] | further results
1 | O=C(CCC(=O)c1ccc(-c2ccccc2)cc1)Nc1nncs1 [compound 2, 2] | 8 |  | 
2 | O=C(CCC(=O)c1ccc(-c2ccccc2)cc1)Nc1nncs1 [compound 2] |  | 53.2 | 
3 | Cc1cc(=O)n(-c2ccccc2)n1C(=O)Cc1cccs1 [compound 3, 3] | 30.1 | 52.5 | IC50 (MtbFolB [3]): 250 ± 30 µM
4 | Cc1ccc(-n2c(=O)cc(C)n2C(=O)Cc2cccs2)cc1C [compound 9, 9] |  | 40.8 | IC50 (MtbFolB [3]): 434 ± 64 µM
5 | O=C(Nc1nc2ccccc2n1Cc1ccc(F)cc1)C1CCC(F)(F)CC1 [compound 14, 14] | 17.2 |  | 
6 | O=C(Nc1nc2ccccc2n1Cc1ccc(F)cc1)C1CCC(F)(F)CC1 [compound 14] |  | 36.6 | 
7 | COc1ccc(CC(=O)n2c(C)cc(=O)n2-c2ccccc2)cc1 [compound 16, 16] |  | 35.1 | 
8 | O=C1NCN(c2ccccc2)C12CCN(CC(O)COc1ccccc1C1CCCC1)CC2 (stereo not drawn) [compound 17, 17] |  |  | % inhibition at 20 μM (MtbFolB [4]): 32.9%
9 | Cc1cc(=O)n(-c2ccccc2)n1C(=O)C(C)Oc1ccccc1 (stereo not drawn) [compound 20, 20] | 23.1 | 29.9 | IC50 (MtbFolB [3]): 362 ± 82 µM
10 | Cc1cc(=O)n(-c2ccccc2)n1C(=O)c1ccc(Cl)cc1 [compound 21, 21] | 34.4 | 29.8 | 
11 | Cc1ccc(-n2c(=O)cc(C)n2C(=O)C(C)Oc2ccccc2)cc1C (stereo not drawn) [compound 22, 22] | 13.5 | 29.2 | IC50 (MtbFolB [3]): 172 ± 14 µM
12 | CN(C)c1ccc(NS(=O)(=O)c2ccc3ccn(C)c3c2)cc1 [compound 24, 24] | > 100 |  | 
13 | CN(C)c1ccc(NS(=O)(=O)c2cnn(C)c2)cc1 [compound 25, 25] | 6.8 |  | 
14 | Cc1noc(C)c1S(=O)(=O)Nc1ccc(N(C)C)cc1 [compound 27, 27] | 9.2 |  | 
15 | CN(C)c1ccc(NS(=O)(=O)c2ccc(-c3ccc(C(F)(F)F)cc3)cc2)cc1 [compound 29, 29] | > 100 |  | 
16 | O=S(=O)(Nc1ccc(N2CCCCC2)cc1)c1ccc(Br)s1 [compound 32, 32] | 11.3 |  | 
17 | O=S(=O)(Nc1ccc(-n2ccnc2)cc1)c1ccc(Br)s1 [compound 33, 33] | > 100 |  | 
18 | CC(=O)Nc1ccc(NS(=O)(=O)c2ccc(Br)s2)cc1 [compound 34, 34] | > 100 |  | 
19 | CCc1cc(N2CCC[C@@H](O)C2)ccc1NS(=O)(=O)c1ccc(Br)s1 [compound 35, 35] | 29.1 |  | 
20 | CC(C)c1ccc(C(C)NS(=O)(=O)c2ccc(Br)s2)cc1 (stereo not drawn) [compound 37, 37] | > 100 |  | 
21 | O=S(=O)(NCc1ccc(N2CCC(c3ccc(OC(F)(F)F)cc3)CC2)cc1)c1ccc(Br)s1 [compound 38, 38] | > 100 |  | 
22 | O=S(=O)(Nc1ccc(N2CCN(S(=O)(=O)c3ccc(Br)s3)CC2)cc1)c1ccc(Br)s1 [compound 39, 39] | 10.6 |  | 
